This data set has as its system alternative splicing of a specific gene (GFP/RFP reporter). Nature of the data set: Compound screen with GFP/RFP alternative splicing reporter. It is filed as cell-based. The text has this: Strategy of a method for testing whether or not a compound to be tested affects an alternative splicing of a specific gene in a mammalian multicelluar organism is shown in FIG. 14.
The reporter proteins used for the method are GFP and FRP.

Where [1] appears, read: cell count after compound at final conc., Ctrl number of cells 4303-5627.
Setting [2] is: reporter ratio relative to control = 1, final conc. per compound (μM, 50 ng/mL).

Structures can show the parent of a compound that is named as a salt. Where two headings read alike, the source gives them in different places.

For `N[C@@H]1C[C@H]1c1ccccc1` (racemic) [Tranylcypromine], the “ratio in column 11 (head not shown in this continuation table; table sorted by it in descending order; apparently GFP/RFP reporter ratio)” value was 0.7492.

In the case of `CC(C)(C)NCC(O)c1ccccc1Cl` (racemic) [Tulobuterol], the Number of cells (50 ng/mL) was 3489.

On to `Nc1ncnc2c1ncn2[C@@H]1O[C@H](CO)[C@@H](O)[C@@H]1O` (racemic) [Vidarabine], for which, where the note is “50 ng/mL”, the Number of cells is 1482.

Consider `CC[C@@]1(O)C(=O)OCc2c1cc1n(c2=O)Cc2cc3cc(O)ccc3nc2-1` [10-hydroxycamptothecin], for which the “GFP/RFP (Ctrl = 1)” value turned out to be 3.114. Moreover, the Number of cells under setting [1] came to 541.

The compound `CC[C@@]1(O)C[C@H](O[C@H]2C[C@H](N(C)C)[C@H](O[C@H]3C[C@H](O)[C@H](O[C@H]4CCC(=O)[C@H](C)O4)[C@H](C)O3)[C@H](C)O2)c2c(cc3c(c2O)C(=O)c2c(O)cccc2C3=O)[C@H]1C(=O)OC` [Aclarubicin] showed a Number of cells under setting [1] of 10.

For `CCCCC[C@H](O)/C=C/[C@H]1[C@H](O)CC(=O)[C@@H]1CCCCCCC(=O)O` [Alprostadil], the Number of cells (50 ng/mL) is reported as 3505.

For the compound `C[C@H]1[C@H](OC(=O)CCC(=O)O)O[C@@H]2O[C@@]3(C)CC[C@H]4[C@H](C)CC[C@@H]1[C@@]24OO3` [Artesunate], for the setting “50 ng/mL”, the Number of cells was determined as 246.

In turn, `COc1ccc(CCN2CCC(Nc3nc4ccccc4n3Cc3ccc(F)cc3)CC2)cc1` [Astemizole] came in with a Number of cells (50 ng/mL) of 38.

On to `CC(=O)OC[C@H]1O[C@@H]([S-])[C@H](OC(C)=O)[C@@H](OC(C)=O)[C@@H]1OC(C)=O.CCP(CC)CC.[Au+]` [Auranofin], for which the “GFP/RFP (Ctrl = 1)” value amounted to 4.915. In addition, under setting [1], the Number of cells is 1.

Consider `Cc1cc2c(OCC(CNC(C)(C)C)OC(=O)c3ccccc3)cccc2[nH]1.O=C(O)CC(=O)O` (stereo not drawn) [Bopindolol malonate], for which the Number of cells worked out at 3625. For the same compound, the “GFP/RFP (Ctrl = 1)” value under setting [2] came out at 1.265.

Take `CCCC(=O)OCC[N+](C)(C)C.[Cl-]` [Butyrylcholine Cl]: the “count per well with compound (column 9, head not shown; probably cell number; c10 = plate reference)” value is 4016 and the “reporter fluorescence ratio relative to control (last column of Table 4, head not shown; table sorted by this value)” value stood at 1.016.

`CC[C@@]1(O)C(=O)OCc2c1cc1n(c2=O)Cc2cc3ccccc3nc2-1` [Camptothecin]: the Number of cells under setting [1] was 385.

For `COc1cc(CNC(=O)CCCC/C=C/C(C)C)ccc1O` [Capsaicin], the Number of cells under setting [1] came out at 1918.

`C[C@@](Cc1ccc(O)c(O)c1)(NN)C(=O)O` [Carbidopa] displayed a Number of cells of 3470.

For `N.N.O=C([O-])C1(C(=O)[O-])CCC1.[Pt+2]` [Carboplatin], the “GFP/RFP (Ctrl = 1)” value amounted to 1.875. This compound registered a Number of cells under setting [1] of 1373.

Take `CC1(C)C[C@@H]1C(=O)N/C(=C\CCCCSC[C@H](N)C(=O)O)C(=O)O` [Cilastatin]: the “cell count per well (c9; column head not printed in these continuation tables, meaning inferred)” value was 2885.

As to `O=P1(N(CCCl)CCCl)NCCCO1` (stereo not drawn) [Cyclophosphamide monohydrate], the “cell count per well (c9; column head not printed in these continuation tables, meaning inferred)” value amounted to 3065.

For `COc1cccc2c1C(=O)c1c(O)c3c(c(O)c1C2=O)C[C@@](O)(C(C)=O)C[C@@H]3O[C@H]1C[C@H](N)[C@H](O)[C@H](C)O1` [Daunorubicin HCl], the Number of cells (50 ng/mL) came out at 3.

On to `CC(CCc1ccc(O)cc1)NCCc1ccc(O)c(O)c1` (stereo not drawn) [Dobutamine HCl], for which the Number of cells under setting [1] is 2991.

The compound `CC(=O)O[C@@]12CO[C@@H]1C[C@H](O)[C@@]1(C)C(=O)[C@H](O)C3=C(C)[C@@H](OC(=O)[C@H](O)[C@@H](NC(=O)OC(C)(C)C)c4ccccc4)C[C@@](O)([C@@H](OC(=O)c4ccccc4)[C@H]21)C3(C)C` [Docetaxil] showed a Number of cells of 1194. Moreover, the “GFP/RFP (Ctrl = 1)” value under setting [2] amounted to 1.862.

In turn, `COc1cccc2c1C(=O)c1c(O)c3c(c(O)c1C2=O)C[C@@](O)(C(=O)CO)C[C@@H]3O[C@H]1C[C@H](N)[C@H](O)[C@H](C)O1` [Doxorubicin HCl] had a Number of cells (50 ng/mL) of 18.

The compound `CNC[C@H](O)c1ccc(O)c(O)c1.O=C(O)C(O)C(O)C(=O)O` [Epinephrine-(+)-tartrate l (−)] returned a Number of cells of 4057. Besides, the “GFP/RFP (Ctrl = 1)” value under setting [2] turned out to be 1.528.

With `COc1cc([C@@H]2c3cc4c(cc3[C@@H](O[C@@H]3O[C@@H]5CO[C@@H](C)O[C@H]5[C@H](O)[C@H]3O)[C@H]3COC(=O)[C@H]23)OCO4)cc(OC)c1O` [Etoposide], the Number of cells (50 ng/mL) came out at 055.

Take `CCOC(=O)C1=C(C)NC(C)=C(C(=O)OC)C1c1cccc(Cl)c1Cl` (stereo not drawn) [Felodipine]: where the note is “50 ng/mL”, the Number of cells is given as 116.

Regarding `COc1ccc2c(c1)[nH]c1c(C)nccc12` [Harmine], the Number of cells under setting [1] was 537.

For the compound `CO[C@@]12[C@H](COC(N)=O)C3=C(C(=O)C(C)=C(N)C3=O)N1C[C@@H]1N[C@@H]12` [Mitomycin c], the “GFP/RFP (Ctrl = 1)” value was determined as 3.767. Under setting [1], the Number of cells is given as 319.

In turn, `Cl.Cl.O=C1c2c(O)ccc(O)c2C(=O)c2c(NCCNCCO)ccc(NCCNCCO)c21` [Mitoxantrone 2HCl] registered a Number of cells of 31. Besides, the “GFP/RFP (Ctrl = 1)” value under setting [2] is 2.651.

`COc1c(C)c2c(c(O)c1C/C=C(\C)CCC(=O)O)C(=O)OC2` [Mycophenolic acid]: the Number of cells (50 ng/mL) came to 1367.

With `COC(=O)C1=C(C)NC(C)=C(C(=O)OC)C1c1ccccc1[N+](=O)[O-]` [Nifedipine], where the note is “50 ng/mL”, the Number of cells is on record as 156.

For `NC[C@H](O)c1ccc(O)c(O)c1.O=C(O)C(O)C(O)C(=O)O` [Norepinephrine-(+)-tartrate l (−)], the Number of cells was 4210. Besides, the “GFP/RFP (Ctrl = 1)” value under setting [2] worked out at 1.594.

For the compound `C[C@@H]1[C@H](O)[C@@H](C)/C=C/C=C/CC/C=C/C=C/C=C/C=C/C(O[C@H]2O[C@H](C)[C@@H](O)[C@H](N)[C@@H]2O)CC2O[C@](O)(CC(O)C(O)CCC(O)CC(O)CC(O)CC(=O)O[C@H]1C)CC(O)C2C(=O)O` (stereo partly drawn) [Nystatin], the “GFP/RFP (Ctrl = 1)” value is on record as 1.253. The compound also came in with a Number of cells under setting [1] of 3293.

On to `O=C1[O][Pt]2([NH][C@@H]3CCCC[C@H]3[NH]2)[O]C1=O` [Oxaliplatin], for which the “GFP/RFP (Ctrl = 1)” value was 2.271. Further, the Number of cells under setting [1] is on record as 825.

With `CC1(C)S[C@@H]2[C@H](NC(=O)COc3ccccc3)C(=O)N2[C@H]1C(=O)[O-].[K+]` [Pencillin v potassium], the “reporter fluorescence ratio, GFP/RFP (c11; column head not printed in these continuation tables, table sorted descending by it)” value stood at 1.134.

Compound `N=C(N)c1ccc(OCCCCCOc2ccc(C(=N)N)cc2)cc1` [Pentamidine] had a Number of cells (50 ng/mL) of 2694.

`COc1cc2nc(N3CCN(C(=O)c4ccco4)CC3)nc(N)c2cc1OC` [Prazosin HCl] returned a Number of cells of 2109.

`CCC(NC(C)C)C(O)c1ccc(O)c2[nH]c(=O)ccc12` (stereo not drawn) [Procaterol hcl] returned a Number of cells of 4151.

In the case of `CC(C)NCC(O)COc1cccc2ccccc12` (stereo not drawn) [Propranolol], where the note is “50 ng/mL”, the Number of cells came to 2641.

`CCN(CC)CCCC(C)Nc1c2ccc(Cl)cc2nc2ccc(OC)cc12.Cl.Cl.O.O` (stereo not drawn) [Quinacrine 2HCl dihydrate] had a Number of cells of 5. Also, the “GFP/RFP (Ctrl = 1)” value under setting [2] is 3.153.

Under setting [1], `CO[C@H]1C[C@@H]2CC[C@@H](C)[C@@](O)(O2)C(=O)C(=O)N2CCCC[C@H]2C(=O)O[C@H]([C@H](C)C[C@@H]2CC[C@@H](O)[C@H](OC)C2)CC(=O)[C@H](C)/C=C(\C)[C@@H](O)[C@@H](OC)C(=O)[C@H](C)C[C@H](C)/C=C/C=C/C=C/1C` [Rapamycin] had a Number of cells of 2046.

The compound `CC1=C(/C=C/C(C)=C/C=C/C(C)=C/C(=O)O)C(C)(C)CCC1` [Retinoic acid] yielded a Number of cells of 2697.

Take `COc1ccc(C2CNC(=O)C2)cc1OC1CCCC1` (stereo not drawn) [Rolipram]: the Number of cells under setting [1] stood at 2878.

Take `Cl.O=C(O)c1cn(-c2ccc(F)cc2)c2cc(N3CCNCC3)c(F)cc2c1=O` [Satafloxacin HCl]: the Number of cells is on record as 3105. In addition, under setting [2], the “GFP/RFP (Ctrl = 1)” value is 1.341.

Where the note is “50 ng/mL”, `C[C@@H]1CN(c2c(F)c(N)c3c(=O)c(C(=O)O)cn(C4CC4)c3c2F)C[C@H](C)N1` [Sparfloxacin] came in with a Number of cells of 3029.

Compound `Cc1coc2c1C(=O)C(=O)c1c-2ccc2c1CCCC2(C)C` [Tanshinone iia] came in with a Number of cells (50 ng/mL) of 2210.

Regarding `CC(=O)O[C@H]1C(=O)[C@@]2(C)[C@H]([C@H](OC(=O)c3ccccc3)[C@]3(O)C[C@H](OC(=O)[C@H](O)[C@@H](NC(=O)c4ccccc4)c4ccccc4)C(C)=C1C3(C)C)[C@]1(OC(C)=O)CO[C@@H]1C[C@@H]2O` [Taxol], under “50 ng/mL”, the Number of cells was found to be 719.

Compound `O=C1CCC(N2C(=O)c3ccccc3C2=O)C(=O)N1` (stereo not drawn) [Thaldomide] registered a Number of cells of 2622. Besides, the “GFP/RFP (Ctrl = 1)” value under setting [2] is 1.271.

The compound `COc1cc2c(cc1OC)-c1c/c(=N\c3c(C)cc(C)cc3C)n(C)c(=O)n1CC2` [Trequinsin] showed a Number of cells of 3009.

`COc1cc(-c2ccc(=O)[nH]n2)ccc1OC(F)F` [Zardaverine] registered a Number of cells under setting [1] of 2744.

Apomorphine r (−): the “GFP/RFP (Ctrl = 1)” value is 1.357. For the same compound, the Number of cells under setting [1] is listed as 3372.

For the compound Bleomycin sulfate, the “GFP/RFP (Ctrl = 1)” value is given as 1.477. Further, the Number of cells under setting [1] was 2702.

Salbutamol sulfate gave a Number of cells of 4053. Moreover, under setting [2], the “GFP/RFP (Ctrl = 1)” value was determined as 1.295.
